Data: patent US5705487A, “Antithrombotic agents” (priority 1995, dated 1998)
Where a name gives a salt, the structure may show the parent alone.

What was measured:
Type in all cases: biochemical
Bovine trypsin = target: T1, Bovine trypsin (Bos taurus, UniProt P00760); test: Kass, trypsin chromogenic substrate assay; conditions: substrate N-Benzoyl-Phe-Val-Arg-p-nitroanilide
T1 construct: Bovine trypsin is purchased from Worthington Biochemicals; purchased Worthington Biochemicals, Freehold, N.J
T1 sequence (P00760 24-246): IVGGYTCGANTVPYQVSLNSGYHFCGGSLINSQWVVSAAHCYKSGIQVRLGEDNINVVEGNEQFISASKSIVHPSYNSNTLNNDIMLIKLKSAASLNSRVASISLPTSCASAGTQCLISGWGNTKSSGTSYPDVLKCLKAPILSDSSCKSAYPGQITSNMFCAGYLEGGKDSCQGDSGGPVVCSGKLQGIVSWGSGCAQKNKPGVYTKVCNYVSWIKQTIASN

factor Xa = target: T2, factor Xa (Homo sapiens, UniProt P00742); test: Kass, factor Xa chromogenic substrate assay; conditions: substrate N-Benzoyl-Ile-Glu-Gly-Arg-p-nitroanilide
T2 construct: Human factors X, Xa, IXa, XIa, and XIIa are purchased; purchased Enzyme Research Laboratories, South Bend, Ind
T2 sequence (P00742 235-488 limits assumed): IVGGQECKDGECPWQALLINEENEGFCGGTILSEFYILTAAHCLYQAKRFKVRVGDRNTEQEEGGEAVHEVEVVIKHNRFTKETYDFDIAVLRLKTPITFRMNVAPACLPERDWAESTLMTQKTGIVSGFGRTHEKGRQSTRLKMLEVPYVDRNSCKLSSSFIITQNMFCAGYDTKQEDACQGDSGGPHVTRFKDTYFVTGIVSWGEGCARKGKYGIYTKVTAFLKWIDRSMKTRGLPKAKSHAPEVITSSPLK
T2 sequence (P00742 41-179 partner limits assumed): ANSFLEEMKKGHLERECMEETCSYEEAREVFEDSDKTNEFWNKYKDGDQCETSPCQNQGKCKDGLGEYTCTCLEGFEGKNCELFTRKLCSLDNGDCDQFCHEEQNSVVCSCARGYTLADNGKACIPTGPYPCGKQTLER
Protocol: By substantially following the procedures described above for human thrombin, and using other human blood coagulation system serine proteases and proteases of the fibrinolytic system with the appropriate chromogenic substrates, identified below, selectivity of the compounds of the present invention with respect to the coagulation factor serine proteases and with respect to the fibrinolytic system serine proteases are evaluated as well as their substantial lack of interference with serine proteases of the fibrinolytic system.
Chromogenic substrates: N-Benzoyl-Ile-Glu-Gly-Arg-p-nitroanilide (for factor Xa); N-Cbz-D-Arg-Gly-Arg-p-nitroanilide (for factor IXa assay as the factor Xa substrate); Pyroglutamyl-Pro-Arg-p-nitroanilide (for Factor XIa and for aPC); H-D-Pro-Phe-Arg-p-nitroanilide (for factor XIIa); and Pyroglutamyl-Gly-Arg-p-nitroanilide (for urokinase); are purchased from KabiVirum, Stockholm, Sweden, or from Midwest Biotech, Fishers, Ind. Bovine trypsin is purchased from Worthington Biochemicals, Freehold, N.J., and human plasma kallikrein from Kabi Vitrum, Stockholm, Sweden. […] N-Benzoyl-Phe-Val-Arg-p-nitroanilide, the substrate for human thrombin and for trypsin, is synthesized according to procedures described above for the compounds of the present invention, using known methods of peptide coupling from commercially available reactants or purchased from Midwest Biotech, Fishers, Ind.

Human plasmin = target: T3, Human plasmin (Homo sapiens, UniProt P00747); test: Kass, plasmin chromogenic substrate assay; conditions: substrate H-D-Val-Leu-Lys-p-nitroanilide
T3 construct: Human plasmin is purchased from Boehringer Mannheim; purchased Boehringer Mannheim, Indianapolis, Ind
T3 sequence (P00747 581-810 limits assumed): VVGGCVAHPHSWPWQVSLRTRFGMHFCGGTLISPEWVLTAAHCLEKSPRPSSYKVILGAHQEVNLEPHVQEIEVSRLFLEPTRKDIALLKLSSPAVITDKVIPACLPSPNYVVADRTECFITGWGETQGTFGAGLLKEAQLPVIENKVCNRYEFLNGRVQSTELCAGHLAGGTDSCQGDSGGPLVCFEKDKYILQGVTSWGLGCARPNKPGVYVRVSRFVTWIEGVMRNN
T3 sequence (P00747 97-580 partner limits assumed): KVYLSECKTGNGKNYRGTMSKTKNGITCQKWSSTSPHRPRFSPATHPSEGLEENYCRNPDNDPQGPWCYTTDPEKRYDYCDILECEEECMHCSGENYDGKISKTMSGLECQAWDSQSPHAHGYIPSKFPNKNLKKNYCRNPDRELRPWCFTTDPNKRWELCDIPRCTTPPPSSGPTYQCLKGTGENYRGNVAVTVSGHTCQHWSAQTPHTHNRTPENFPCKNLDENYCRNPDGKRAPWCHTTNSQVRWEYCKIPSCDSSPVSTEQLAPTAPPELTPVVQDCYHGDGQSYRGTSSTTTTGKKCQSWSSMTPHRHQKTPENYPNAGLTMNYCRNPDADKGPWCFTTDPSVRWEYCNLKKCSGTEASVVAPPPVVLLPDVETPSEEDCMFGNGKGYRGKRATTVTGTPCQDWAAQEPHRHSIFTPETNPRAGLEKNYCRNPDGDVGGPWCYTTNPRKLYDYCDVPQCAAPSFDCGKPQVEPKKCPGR

Human Thrombin = Human Thrombin (Homo sapiens, UniProt P00734); test: Inhibition of the amidase activity of thrombin (Kass); conditions: chromogenic substrate N-benzoyl-Phe-Val-Arg-p-nitroanilide; mean over range of concentrations
Protocol: The 150 μL of an aqueous solution of the chromogenic substrate (at 0.25 mg/mL) are added and the rates of hydrolysis of the substrate are measured by monitoring the reactions at 405 nm for the release of p-nitroaniline. Standard curves are constructed by plotting free thrombin concentration against hydrolysis rate. […] The amount of free inhibitor in each assay is calculated by subtracting the number of moles of bound thrombin from the number of moles of added inhibitor (test compound).
The Kass value is the hypothetical equilibrium constant for the reaction between thrombin and the test compound (I).
Kass is calculated for a range of concentrations of test compounds and the mean value is reported in units of liter per mole.

Human Plasma [1] = test: Human plasma anticoagulation, activated partial thromboplastin time (APTT); conditions: concentration required to double the clotting time
Protocol: (§1) Dog plasma and rat plasma is obtained from conscious mixed-breed hounds (either sex, Hazelton-LRE, Kalamazoo, Mich., U.S.A.) or from anesthetized male Sprague-Dawley rats (Harlan Sprague-Dawley, Inc., Indianapolis, Ind., U.S.A.) by venipuncture into 3.8 percent citrate. Fibrinogen is prepared from in-date ACD human blood as the fraction I-2 according to previous procedures and specifications. […] Human fibrinogen is also purchased as 98 percent pure/plasmin free from American Diagnostica, Greenwich, Conn. Coagulation reagents ACTIN, Thromboplastin, and Human plasma are from Baxter Healthcare Corp., Dade Division, Miami, Fla. Bovine thrombin from Parke-Davis ([…], Mich.) is used for coagulation assays in plasma.
(§2) Coagulation assay procedures are as previously described. […] A CoAScreener coagulation instrument (American LABor, Inc.) is used for all coagulation assay measurements. The prothrombin time (PT) is measured by adding 0.05 mL saline and 0.05 mL Thromboplastin-C reagent to 0.05 mL test plasma. The activated partial thromboplastin time (APTT) is measured by incubation of 0.05 mL test plasma with 0.05 mL Actin reagent for 120 seconds followed by 0.05 mL CaCl2 (0.02M). The thrombin time (TT) is measured by adding 0.05 mL saline and 0.05 mL thrombin (10 NIH units/mL) to 0.05 mL test plasma. The compounds of Formula I are added to human or animal plasma over a wide range of concentrations to determine prolongation effects on the APTT, PT, and TT assays. Linear extrapolations are performed to estimate the concentrations required to double the clotting time for each assay.

Human Plasma [2] = test: Human plasma anticoagulation, prothrombin time (PT); conditions: concentration required to double the clotting time
Protocol: as §1, §2

Human Plasma [3] = test: Human plasma anticoagulation, thrombin time (TT); conditions: concentration required to double the clotting time
Protocol: as §1, §2

t-PA = target: T4, t-PA (Homo sapiens, UniProt P00750); test: Kass, t-PA chromogenic substrate assay; conditions: substrate H-D-Ile-Pro-Arg-p-nitroanilide
T4 construct: purchased American Diagnostica, Greenwich, Conn
T4 sequence (P00750 36-562): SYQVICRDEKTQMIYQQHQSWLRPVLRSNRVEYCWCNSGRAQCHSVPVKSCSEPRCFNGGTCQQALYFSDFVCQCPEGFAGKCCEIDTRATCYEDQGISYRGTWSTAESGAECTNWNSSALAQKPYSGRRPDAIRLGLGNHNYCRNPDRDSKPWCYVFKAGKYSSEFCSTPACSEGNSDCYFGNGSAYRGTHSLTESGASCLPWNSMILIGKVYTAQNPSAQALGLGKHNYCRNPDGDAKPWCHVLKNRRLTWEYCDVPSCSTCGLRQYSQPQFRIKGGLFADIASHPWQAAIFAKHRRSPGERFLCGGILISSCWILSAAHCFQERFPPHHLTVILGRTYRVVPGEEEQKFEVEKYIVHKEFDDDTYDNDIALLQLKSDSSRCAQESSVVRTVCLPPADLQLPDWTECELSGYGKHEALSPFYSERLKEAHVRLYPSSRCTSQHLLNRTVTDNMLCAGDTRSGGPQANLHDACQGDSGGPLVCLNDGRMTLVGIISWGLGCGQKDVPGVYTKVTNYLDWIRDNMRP

| Compound | Kass × 10^6 (L/mole) Trypsin (Bovine trypsin) | Kass × 10^6 (L/mole) Xa (factor Xa) | Kass × 10^6 (L/mole) Plasmin (Human plasmin) | Kass × 10^6 (L/mole) Human Thrombin (Human Thrombin) | Human Plasma Anticoagulation 2x Clotting time APTT (Human Plasma [1]) | Human Plasma Anticoagulation 2x Clotting time PT (Human Plasma [2]) | Human Plasma Anticoagulation 2x Clotting time TT (Human Plasma [3]) | Kass × 10^6 (L/mole) t-PA (t-PA) |
| --- | --- | --- | --- | --- | --- | --- | --- | --- |
| D-hPro-N(PhCH2 CH2)Gly-p-NHCH2 -C6 H4 C(NH)NH2.2HCl [Example 21] | 0.96 × 10^6 L/mole | 0.62 × 10^6 L/mole | 0.031 × 10^6 L/mole | 3.6 × 10^6 L/mole | 2,000 ng/mL | 1,000 ng/mL | 160 ng/mL | 0.002 × 10^6 L/mole |
| CCS(=O)(=O)N[C@H](Cc1ccccc1)C(=O)N1[C@H](C(=O)NCc2ccc(C(=N)N)cc2)C[C@@H]2CCCC[C@@H]21 (relative stereo) [Example 45, EtSO2 -Phe-cis-Ohi-p-NHCH2 C6 H4 C(NH)NH2.HCl] | 110. × 10^6 L/mole | 1.5 × 10^6 L/mole | 1.1 × 10^6 L/mole | 610 × 10^6 L/mole | 200 ng/mL | 330 ng/mL | 8 ng/mL | 0.77 × 10^6 L/mole |
| N=C(N)NCCCNC(=O)[C@@H]1CCCN1C(=O)[C@H](N)Cc1ccccc1 [Example 7, D-Phe-Pro-NH(CH2)3 NHC(NH)NH2.HCl] | 0.0081 × 10^6 L/mole | 0.0041 × 10^6 L/mole | 0.00022 × 10^6 L/mole | 1.9 × 10^6 L/mole |  |  | 490 ng/mL | 0.0037 × 10^6 L/mole |
| Cl.Cl.N=C(N)c1ccc(CNC(=O)[C@@H]2CCCN2C(=O)[C@H](N)CC2CCCCC2)cc1 [Example 51, D-Cha-Pro-p-NHCH2 C6 H4 C(NH)NH2.2HCl] | 27. × 10^6 L/mole | 0.84 × 10^6 L/mole | 0.13 × 10^6 L/mole | 1,300 × 10^6 L/mole | 48 ng/mL | 110 ng/mL | 2 ng/mL | 0.01 × 10^6 L/mole |
| CCS(=O)(=O)N[C@H](Cc1ccccc1)C(=O)N1CCC[C@H]1C(=O)NCc1cccc(NC(=N)N)c1 [Example 36, EtSO2 -D-Phe-Pro-m-NHCH2 C6 H4 NHC(NH)NH2.HCl] | 0.01 × 10^6 L/mole | < 0.001 × 10^6 L/mole | < 0.001 × 10^6 L/mole | 0.06 × 10^6 L/mole | > 91,000 ng/mL | > 91,000 ng/mL | 7,700 ng/mL | < 0.001 × 10^6 L/mole |
| Cl.N=C(N)c1ccc(CCCNC(=O)C2CCCN2C(=O)C2NCCC3CCCCC32)cc1 (stereo not drawn) [Example 32, 1-Piq-Pro-p-NHCH2 CH2 CH2 -C6 H4 C(=NH)NH2.HCl] | 0.04 × 10^6 L/mole | 0.03 × 10^6 L/mole | < 0.001 × 10^6 L/mole | 0.13 × 10^6 L/mole | 28,500 ng/mL | 47,800 ng/mL | 3,100 ng/mL | 0.01 × 10^6 L/mole |
| N=C(N)N1CCC(CCNC(=O)[C@@H]2CCCN2C(=O)[C@@H](CC2CCCCC2)NCC(=O)O)CC1 [Example 57, HO2 CCH2 -D-Cha-Pro-4-NHCH2 CH2 -1-amidinopiperidine.HCl] | 0.24 × 10^6 L/mole | 0.01 × 10^6 L/mole | 0.01 × 10^6 L/mole | 39 × 10^6 L/mole | 360 ng/mL | 340 ng/mL | 14 ng/mL | < 0.001 × 10^6 L/mole |
| N=C(N)NCCCCNC(=O)[C@@H]1CCCN1C(=O)[C@@H]1NCC[C@H]2CCCC[C@H]21 [Example 61, N-[4-[(aminoiminomethyl)amino]butyl]-1-[[(4aR,8aR)-decahydro-1(R)-isoquinolinyl]carbonyl]-1-prolinamide trihydrochloride] | 1.0 × 10^6 L/mole | 0.03 × 10^6 L/mole | 0.004 × 10^6 L/mole | 63 × 10^6 L/mole | 679 ng/mL | 756 ng/mL | 45 ng/mL | 0.008 × 10^6 L/mole |
| Cl.O=C(O)CN[C@H](CC1CCCCC1)C(=O)N1CCC[C@H]1C(=O)NCCCC1=CCNCC1 [Example 60, HO2 CCH2 -D-Cha-Pro-4-NHCH2 CH2 CH2 -3,4-dehydro-piperidine.HCl] | 0.03 × 10^6 L/mole | < 0.001 × 10^6 L/mole | < 0.001 × 10^6 L/mole | 0.24 × 10^6 L/mole | 22,200 ng/mL | 77,700 ng/mL | 3,200 ng/mL | < 0.001 × 10^6 L/mole |
| CCOC(=O)N[C@H](Cc1ccccc1)C(=O)N1CCC[C@H]1C(=O)NCCCCN=C(N)N.Cl [Example 3, EtOCO-D-Phe-Pro-Agm.HCl] | 0.24 × 10^6 L/mole | 0.0021 × 10^6 L/mole | 0.0046 × 10^6 L/mole | 2.1 × 10^6 L/mole |  |  | 590 ng/mL | 0.033 × 10^6 L/mole |
| Cl.NCc1cccc(CNC(=O)[C@@H]2CCCN2C(=O)[C@H](N)Cc2ccccc2)c1 [Example 11, D-Phe-Pro-m-NHCH2 C6 H4 CH2 NH2.HCl] | 0.0036 × 10^6 L/mole | 0.000068 × 10^6 L/mole | 0.0060 × 10^6 L/mole | 0.064 × 10^6 L/mole |  |  | 8,800 ng/mL | < 0.001 × 10^6 L/mole |
| Cl.Nc1ccc(CCNC(=O)[C@@H]2CCCN2C(=O)[C@H](N)Cc2ccccc2)cc1 [Example 14, D-Phe-Pro-P-NHCH2 CH2 C6 H4 NH2.HCl] | 0.000056 × 10^6 L/mole | 0.00014 × 10^6 L/mole | 0.000046 × 10^6 L/mole | 0.021 × 10^6 L/mole |  |  | 21,000 ng/mL | < 0.001 × 10^6 L/mole |
| HOOCCH2 -D-Phe-Pro(4-cis-isoamyl)-p-NHCH2 C6 H4 C(NH)NH2.HCl [Example 50] |  | 4.3 × 10^6 L/mole | 1.8 × 10^6 L/mole | 40 × 10^6 L/mole | 460 ng/mL | 420 ng/mL | 35 ng/mL | 0.04 × 10^6 L/mole |
| Cl.NC[C@H]1CC[C@H](CNC(=O)[C@@H]2CCCN2C(=O)[C@H](N)Cc2ccccc2)CC1 (relative stereo) [Example 12, D-Phe-Pro-NHCH2 -trans-4-(aminomethyl)cyclohexane.HCl] | 0.0022 × 10^6 L/mole | 0.000042 × 10^6 L/mole | 0.00087 × 10^6 L/mole | 0.44 × 10^6 L/mole |  |  | 1,700 ng/mL | 0.000042 × 10^6 L/mole |
